How the values were obtained:
[1] = test system: mice with liver fibrosis induced by CCl4; assay: Serological indicators (serum AST and ALT activity) in mice with liver fibrosis induced by CCl4; type: in vivo; settings: silybin 70 mg/kg/d, gastric perfusion, 6 weeks; compared to the CCl4 group, P<0.05
Protocol: (§1) Experimental animals: SPF grade C57 mice, 8-week old, half male and half female, supplied by Guangdong Medical Lab Animal Center, housed in an animal room in a barrier environment (SPF grade), and feeds and water and libitum. Certificate [SCXK(YUE) 2013-0002].
Administration: 32 pills of Longhu Rendan were placed in a mortar and ground, dissolved in 20 mL of 0.5% CMC-Na, pipetted into a 50-mL centrifuge tube, vortexed to be completely dissolved, and made up to 32 mL (solution A). Six 5-ml EP tubes were charged with the solution A per 3 mL/tube (namely, daily dosage for a high-dose group). Another 50-mL tube was charged with 9 ml of the solution A, added with 9 mL 0.5% CMC-Na, and mixed uniformly; and six 5-ml EP tubes were charged with the solution per 3 mL/tube (namely, daily dosage for a medium-dose group). Another 50-mL centrifuge tube was charged with 4.5 ml of the solution A, added with the 0.5% CMC-Na solution to 18 mL, and mixed uniformly; and six 5-ml EP tubes were charged with the solution per 3 mL/tube (namely, daily dosage for a low-dose group). Continue for 6 weeks, 6×32 pills=192 pills in total, about 4 boxes. […]
After fasting for 12 h, the eyeballs were removed and blood was taken and serum was separated. ALT and AST activities were determined by alanine aminotransferase (ALT) and aspartate aminotransferase (AST) kits.

[2] = test system: mice with liver fibrosis induced by CCl4; assay: Pathological indicators (HE, Sirius Red, α-SMA immunohistochemical staining of livers) in mice with liver fibrosis induced by CCl4; type: in vivo; settings: silybin 70 mg/kg/d, 6 weeks
Protocol: as §1
Administration: 32 pills of Longhu Rendan were placed in a mortar and ground, dissolved in 20 mL of 0.5% CMC-Na, pipetted into a 50-mL centrifuge tube, vortexed to be completely dissolved, and made up to 32 mL (solution A). Six 5-ml EP tubes were charged with the solution A per 3 mL/tube (namely, daily dosage for a high-dose group). Another 50-mL tube was charged with 9 ml of the solution A, added with 9 mL 0.5% CMC-Na, and mixed uniformly; and six 5-ml EP tubes were charged with the solution per 3 mL/tube (namely, daily dosage for a medium-dose group). Another 50-mL centrifuge tube was charged with 4.5 ml of the solution A, added with the 0.5% CMC-Na solution to 18 mL, and mixed uniformly; and six 5-ml EP tubes were charged with the solution per 3 mL/tube (namely, daily dosage for a low-dose group). Continue for 6 weeks, 6×32 pills=192 pills in total, about 4 boxes.
Formulation of silybin: one 50-mL centrifuge tube was added with 10 to 12 mL of 0.5% CMC-Na, charged with 4 capsules, dissolved, made up to 20 mL with 0.5% CMC-Na, and mixed uniformly. Six 5-ml EP tubes were charged with the solution per 3 mL/tube (namely, daily dosage). Continue for 6 weeks, 6×4 capsules=24 capsules in total, about 2 boxes.
[…] healthy KM mice were randomly divided into 6 groups with 8 mice/group. Namely: a blank control group, a CCl4 model group, a silybin positive control group, and low, medium, and high dose groups of Longhu Rendan. All groups received a normal diet. […]
HE staining, Sirius Red staining, and smooth muscle actin protein α-SMA immunohistochemical staining. Positive staining areas of Sirius Red staining and immunohistochemical staining were calculated by the ImageJ software, data was processed and plotted by GraphPadPrism, and t-test analysis was performed, where P<0.05 was considered statistically significant.

## COc1cc(C2Oc3cc([C@H]4Oc5cc(O)cc(O)c5C(=O)[C@@H]4O)ccc3OC2CO)ccc1O (stereo partly shown) [silybin]
[1]
  serum AST activity: significantly reduced
[2]
  degree of fibrosis (Sirius Red staining of mouse livers): significantly improve the degree of fibrosis
  degree of fibrosis (α-SMA immunohistochemical staining of mouse livers): significantly improve the degree of fibrosis
[2]; compared to the CCl4 model group
  inflammatory infiltration and liver injury (HE staining of mouse livers): improved at different degrees

From US11793852B2, “Application of Longhu Rendan in preparing medicament for preventing and/or treating liver fibrosis” (Shanghai Zhonghua Pharmaceutical Co., Ltd, priority 2017, dated 2023)
